According to publication PMC5506883 (Heliyon, 2017):

What was measured:
[1] = molecular target: Horse butyrylcholinesterase (EC 3.1.1.8) (Equus caballus, UniProt P81908); assay: Anticholinesterase assay; type: biochemical; details: Butyrylcholinesterase inhibition activity IC50 μM ± SEM, mean of three experiments with SEM; 15 min at 25 °C, pH 8.0
xanthine oxidase = details: ref Sheu and Chiang, 1997; cited from earlier work

Sequence of Horse butyrylcholinesterase (EC 3.1.1.8) (P81908 whole entry): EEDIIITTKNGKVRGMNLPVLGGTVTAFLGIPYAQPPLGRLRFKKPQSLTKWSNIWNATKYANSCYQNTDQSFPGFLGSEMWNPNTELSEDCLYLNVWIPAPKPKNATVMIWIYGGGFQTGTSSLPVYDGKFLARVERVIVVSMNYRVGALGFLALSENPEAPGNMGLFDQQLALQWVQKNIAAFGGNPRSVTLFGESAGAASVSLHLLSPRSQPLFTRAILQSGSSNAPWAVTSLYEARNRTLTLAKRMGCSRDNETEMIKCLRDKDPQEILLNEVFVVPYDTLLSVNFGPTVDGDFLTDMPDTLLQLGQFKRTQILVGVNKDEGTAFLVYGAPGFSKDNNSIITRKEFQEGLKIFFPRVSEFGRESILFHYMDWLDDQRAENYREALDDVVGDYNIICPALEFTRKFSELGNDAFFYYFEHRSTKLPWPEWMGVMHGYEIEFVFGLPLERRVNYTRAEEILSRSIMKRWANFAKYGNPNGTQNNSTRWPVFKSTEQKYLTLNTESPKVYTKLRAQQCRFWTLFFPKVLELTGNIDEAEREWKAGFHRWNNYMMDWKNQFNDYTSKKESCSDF

## Oc1ccc2c(O)c3ccccc3cc2c1O [Compound 1, anthracene-1,2,10-triol]
[1]
  IC50: 89.3 ± 0.21 µM
Xanthine oxidase
  xanthine oxidase inhibitory activity at concentration: 68.35 µM
